For one assay, the target named is VEGFR2 (KDR) (Homo sapiens (Human), UniProt P35968). Put plainly: VEGFR2 (KDR) enzyme assay, fluorescence polarization. Particulars: 5 μM ATP, poly(Glu, Tyr) substrate. The format is biochemical. Put shortly:
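Buffer: 20 mM HEPES pH 7.4 with 5 mM MgCl2, 2 mM MnCl2 and 50 μM Na3VO4. Compound (0.0001–10 μM) was premixed 10 min with VEGFR2 (200 ng/10 μl), then poly(Glu,Tyr) substrate (10 ng/ml) and 5 μM ATP were added for 1 h at room temperature. EDTA-quenched samples were read by FP after 30 min with antibody and tracer.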
Background: Fluorescence polarisation rises when a labelled molecule tumbles more slowly, as on binding a larger partner.

The subject of assay [1] is breast cancer cell line, SK-Br3. Description: Inhibitory effect on growth of cancer cell line SK-Br3, SRB. The format is cell-based. The following applies: overexpressed EGFR2 (HER-2). The method in brief: (§1)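 Growth inhibition was measured by sulforhodamine-B staining (absorbance 570 nm) of TCA-fixed cells after 72 h compound exposure at 37 °C, 5% CO2. Test concentrations ran from 10 μM in 10-fold steps to 10^−4, with DMSO below 1%, in 10% FBS DMEM.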

For assay [2], the system named is skin cancer cell line, A431. Put plainly: Inhibitory effect on growth of cancer cell line A431, SRB. It is filed as cell-based. The following applies: overexpressed EGFR1 (HER-1). The method in brief:
as §1

For assay [3], the system named is Human Umbilical Vein Endothelial Cell (HUVEC). Description: Inhibitory effect on growth of human umbilical vein endothelial cell (HUVEC), MTS. It is filed as cell-based. Particulars: 10 ng/ml VEGF, absorbance 490 nm.
For assay [4], the system named is colon and rectal cancer cell line, SW-620. Description: Inhibitory effect on growth of cancer cell line SW-620, SRB. The format is cell-based. The following applies: not having overexpressed EGFR and EGFR2. The method in brief: as §1
The target of a further assay is EGFR1 (HER-1) (Homo sapiens (Human), UniProt P00533). Description: EGFR1 (HER-1) enzyme assay, fluorescence polarization. The format is biochemical. The following applies: 100 μM ATP, poly(Glu, Tyr) substrate.
Chain of EGFR1 (HER-1) (P00533 25-1210): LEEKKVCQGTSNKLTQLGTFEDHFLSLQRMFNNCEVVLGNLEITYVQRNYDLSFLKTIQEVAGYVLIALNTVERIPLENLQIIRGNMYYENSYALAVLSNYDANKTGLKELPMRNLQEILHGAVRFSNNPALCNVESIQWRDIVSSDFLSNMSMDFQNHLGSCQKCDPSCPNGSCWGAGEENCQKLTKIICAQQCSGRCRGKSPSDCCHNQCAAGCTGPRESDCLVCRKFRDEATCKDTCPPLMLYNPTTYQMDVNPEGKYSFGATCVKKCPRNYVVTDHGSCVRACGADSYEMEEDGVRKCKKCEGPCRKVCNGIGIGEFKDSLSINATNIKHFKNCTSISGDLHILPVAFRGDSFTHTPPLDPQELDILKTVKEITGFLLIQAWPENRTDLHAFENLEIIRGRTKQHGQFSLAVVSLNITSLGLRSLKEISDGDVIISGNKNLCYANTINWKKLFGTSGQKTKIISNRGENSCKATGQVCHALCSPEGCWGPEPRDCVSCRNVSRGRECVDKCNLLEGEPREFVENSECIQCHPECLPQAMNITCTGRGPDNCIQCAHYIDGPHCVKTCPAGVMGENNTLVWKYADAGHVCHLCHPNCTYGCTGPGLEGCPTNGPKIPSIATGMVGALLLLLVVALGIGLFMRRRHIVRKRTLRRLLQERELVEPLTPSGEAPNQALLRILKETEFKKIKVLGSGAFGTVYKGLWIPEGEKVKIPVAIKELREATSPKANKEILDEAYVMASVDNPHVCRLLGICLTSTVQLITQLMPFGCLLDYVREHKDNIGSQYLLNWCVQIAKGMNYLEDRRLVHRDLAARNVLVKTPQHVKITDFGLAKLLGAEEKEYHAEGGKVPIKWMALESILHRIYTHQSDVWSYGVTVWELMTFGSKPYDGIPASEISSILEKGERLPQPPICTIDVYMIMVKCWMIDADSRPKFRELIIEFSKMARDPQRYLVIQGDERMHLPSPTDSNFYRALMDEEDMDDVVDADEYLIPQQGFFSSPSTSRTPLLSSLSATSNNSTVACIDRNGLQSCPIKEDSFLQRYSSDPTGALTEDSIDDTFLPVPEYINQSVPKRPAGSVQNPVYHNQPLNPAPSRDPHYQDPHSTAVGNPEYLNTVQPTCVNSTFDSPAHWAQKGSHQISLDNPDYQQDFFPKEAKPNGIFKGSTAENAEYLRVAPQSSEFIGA

Chain of VEGFR2 (KDR) (P35968 20-1356): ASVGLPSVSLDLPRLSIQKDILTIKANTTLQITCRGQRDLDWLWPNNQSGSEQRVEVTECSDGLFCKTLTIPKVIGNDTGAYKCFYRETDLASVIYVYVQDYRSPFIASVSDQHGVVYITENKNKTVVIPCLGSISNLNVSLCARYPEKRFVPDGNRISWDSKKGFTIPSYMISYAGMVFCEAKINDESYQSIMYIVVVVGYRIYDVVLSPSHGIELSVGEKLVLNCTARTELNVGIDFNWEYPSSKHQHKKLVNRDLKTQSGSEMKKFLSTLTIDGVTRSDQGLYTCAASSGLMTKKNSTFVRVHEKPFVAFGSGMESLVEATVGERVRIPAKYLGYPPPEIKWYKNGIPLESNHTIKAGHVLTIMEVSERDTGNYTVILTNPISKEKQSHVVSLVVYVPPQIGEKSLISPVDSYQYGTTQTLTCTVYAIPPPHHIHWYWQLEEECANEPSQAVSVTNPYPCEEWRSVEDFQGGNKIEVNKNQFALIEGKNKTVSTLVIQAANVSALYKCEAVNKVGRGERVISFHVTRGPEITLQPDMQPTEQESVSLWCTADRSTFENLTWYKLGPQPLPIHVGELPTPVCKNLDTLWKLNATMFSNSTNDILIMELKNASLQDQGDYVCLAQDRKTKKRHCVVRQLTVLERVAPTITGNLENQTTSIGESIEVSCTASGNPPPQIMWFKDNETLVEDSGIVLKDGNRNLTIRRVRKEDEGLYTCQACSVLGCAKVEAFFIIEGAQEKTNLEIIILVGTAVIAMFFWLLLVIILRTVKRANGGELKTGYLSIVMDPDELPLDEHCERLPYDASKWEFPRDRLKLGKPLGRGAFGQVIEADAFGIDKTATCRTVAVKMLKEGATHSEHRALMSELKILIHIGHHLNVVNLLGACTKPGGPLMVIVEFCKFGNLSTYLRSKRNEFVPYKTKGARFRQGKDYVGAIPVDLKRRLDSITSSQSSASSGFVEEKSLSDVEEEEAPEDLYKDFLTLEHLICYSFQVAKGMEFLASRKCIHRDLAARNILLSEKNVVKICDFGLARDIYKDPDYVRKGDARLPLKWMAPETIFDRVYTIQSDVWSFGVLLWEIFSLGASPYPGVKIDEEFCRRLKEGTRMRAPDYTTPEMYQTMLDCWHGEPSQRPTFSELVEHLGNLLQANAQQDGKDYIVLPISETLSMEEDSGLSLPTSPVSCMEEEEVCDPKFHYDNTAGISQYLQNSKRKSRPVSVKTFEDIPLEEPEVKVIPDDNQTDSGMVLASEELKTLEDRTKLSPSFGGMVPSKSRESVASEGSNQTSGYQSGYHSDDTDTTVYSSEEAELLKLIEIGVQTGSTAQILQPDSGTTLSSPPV

For the compound `C=CC(=O)Nc1cc2c(Nc3ccc(Br)cc3F)ncnc2cc1OCCNC(=O)C(=C)C` [Example 49, N-{2-[6-acryloylamino-4-(4-bromo-2-fluoro-phenylamino)-quinazolin-7-yloxy]-ethyl}-2-methyl-acrylamide], the IC50 (usually the concentration needed to halve the response being measured) against VEGFR2 (KDR) was determined as 0.854 µM; in assay [1] (Homo sapiens, SK-BR-3, 72 h), 0.243 µM; in assay [2] (Homo sapiens, A-431, 72 h) it was 0.062 µM; in assay [3] (Homo sapiens, 96 h) it was 0.964 µM; in assay [4] (Homo sapiens, 72 h), 4.59 µM; against EGFR1 (HER-1), 0.069 µM.

`C=CC(=O)Nc1cc2c(Nc3ccc(Br)cc3F)ncnc2cc1OCCNc1nccs1` [Example 90, N-{4-(4-bromo-2-fluoro-phenylamino)-7-[2-(thiazol-2-ylamino)-ethoxy]-quinazolin-6-yl}-acrylamide]: the IC50 against VEGFR2 (KDR) was 0.477 µM; in assay [1] (Homo sapiens, SK-BR-3, 72 h) it was 1.28 µM; in assay [2] (Homo sapiens, A-431, 72 h), 0.31 µM; in assay [3] (Homo sapiens, 96 h), 0.589 µM; in assay [4] (Homo sapiens, 72 h), 10 µM; on EGFR1 (HER-1), 0.295 µM.

Turning to `C=CC(=O)Nc1cc2c(Nc3ccc(Cl)nc3)ncnc2cc1OCCNC(C)=O` [Example 128, N-[7-(2-acetylamino-ethoxy)-4-(6-chloro-pyridin-3-ylamino)-quinazolin-6-yl]-acrylamide], the IC50 on VEGFR2 (KDR) was determined as 0.823 µM; in assay [1] (Homo sapiens, SK-BR-3, 72 h), 0.095 µM; in assay [2] (Homo sapiens, A-431, 72 h) it was 0.068 µM; in assay [3] (Homo sapiens, 96 h), 0.945 µM; in assay [4] (Homo sapiens, 72 h), 10 µM; on EGFR1 (HER-1) it was 0.065 µM.

With `C=CC(=O)Nc1cc2c(Nc3ccc(Br)cc3F)ncnc2cc1OCCNC(=O)C1CCCN1C(=O)CC` (stereo not drawn) [Example 106, 1-propionyl-pyrrolidine-2-carboxylic acid {2-[6-acryloylamino-4-(4-bromo-2-fluoro-phenylamino)-quinazolin-7-yloxy]-ethyl}-amide], the IC50 against VEGFR2 (KDR) was 0.853 µM; in assay [1] (Homo sapiens, SK-BR-3, 72 h) it was 0.311 µM; in assay [2] (Homo sapiens, A-431, 72 h), 0.264 µM; in assay [3] (Homo sapiens, 96 h), 0.951 µM; in assay [4] (Homo sapiens, 72 h), 2.8 µM; against EGFR1 (HER-1) it was 0.196 µM.

Turning to `C=CC(=O)Nc1cc2c(Nc3ccc(Br)c(Cl)c3F)ncnc2cc1OC[C@@H](C)NC(=O)CN(C)C` [Example 164, (R)—N-4-(4-bromo-3-chloro-2-fluoro-phenylamino)-7-[2-(2-dimethylamino-acetylamino)-propoxy]-quinazolin-6-yl-acrylamide], the IC50 on VEGFR2 (KDR) is 0.713 µM; in assay [1] (72 hours), 0.036 µM; in assay [2] (72 hours) it was 0.019 µM; in assay [3] (96 hours), 0.754 µM; in assay [4] (72 hours), 8.97 µM; on EGFR1 (HER-1), 0.014 µM.

On to `C=CC(=O)Nc1cc2c(Nc3ccc(Br)cc3F)ncnc2cc1OCC1CNC(=O)O1` (stereo not drawn) [Example 91, N-[4-(4-bromo-2-fluoro-phenylamino)-7-(2-oxo-oxazolidin-5-ylmethoxy)-quinazolin-6-yl]-acrylamide], for which the IC50 against VEGFR2 (KDR) came out at 0.587 µM; in assay [1] (Homo sapiens, SK-BR-3, 72 h), 0.335 µM; in assay [2] (Homo sapiens, A-431, 72 h), 0.015 µM; in assay [3] (Homo sapiens, 96 h) it was 0.696 µM; in assay [4] (Homo sapiens, 72 h), 2.79 µM; on EGFR1 (HER-1) it was 0.017 µM.

As to `C=CC(=O)Nc1cc2c(Nc3ccc(Br)cc3F)ncnc2cc1OCCN(C)C` [Example 19, N-[4-(4-bromo-2-fluoro-phenylamino)-7-(2-dimethylamino-ethoxy)-quinazolin-6-yl]-acrylamide], the IC50 against VEGFR2 (KDR) was found to be 0.45 µM; in assay [1] (Homo sapiens, SK-BR-3, 72 h) it was 0.813 µM; in assay [2] (Homo sapiens, A-431, 72 h) it was 0.039 µM; in assay [3] (Homo sapiens, 96 h) it was 0.35 µM; in assay [4] (Homo sapiens, 72 h), 10 µM; against EGFR1 (HER-1) it was 0.009 µM.

Consider `C=CC(=O)Nc1cc2c(Nc3ccc(Br)cc3F)ncnc2cc1OCCCNC(=O)CC` [Example 87, N-[4-(4-bromo-2-fluoro-phenylamino)-7-(3-propionylamino-propoxy)-quinazolin-6-yl]-acrylamide], for which the IC50 against VEGFR2 (KDR) worked out at 0.698 µM; in assay [1] (Homo sapiens, SK-BR-3, 72 h), 0.288 µM; in assay [2] (Homo sapiens, A-431, 72 h), 0.044 µM; in assay [3] (Homo sapiens, 96 h), 0.692 µM; in assay [4] (Homo sapiens, 72 h), 10 µM; against EGFR1 (HER-1) it was 0.04 µM.

In the case of `C=CC(=O)Nc1cc2c(Nc3ccc(Br)cc3F)ncnc2cc1OCCNC(=O)CN1CCCCC1` [Example 101, N-{4-(4-bromo-2-fluoro-phenylamino)-7-[2-(2-piperidin-1-yl-acetylamino)-ethoxy]-quinazolin-6-yl}-acrylamide], the IC50 on VEGFR2 (KDR) was 0.857 µM; in assay [1] (Homo sapiens, SK-BR-3, 72 h), 0.076 µM; in assay [2] (Homo sapiens, A-431, 72 h), 0.008 µM; in assay [3] (Homo sapiens, 96 h) it was 0.964 µM; in assay [4] (Homo sapiens, 72 h) it was 2.92 µM; on EGFR1 (HER-1) it was 0.007 µM.

For the compound `C=CC(=O)Nc1cc2c(Nc3ccc(Br)cc3F)ncnc2cc1OCCNC(=O)C(C)N` (stereo not drawn) [Example 173, N-[7-[2-(2-amino-propionylamino)-ethoxy]-4-(4-bromo-2-fluoro-phenylamino)-quinazolin-6-yl]-acrylamide], the half-maximal inhibitory concentration (IC50) was 0.165 µM against VEGFR2 (KDR); 0.504 µM in assay [1] (Homo sapiens, SK-BR-3, 72 h); 0.038 µM in assay [2] (Homo sapiens, A-431, 72 h); 0.213 µM in assay [3] (Homo sapiens, 96 h); 10 µM in assay [4] (Homo sapiens, 72 h); 0.018 µM at EGFR1 (HER-1).

Regarding `C=CC(=O)Nc1cc2c(Nc3ccc(Br)c(Cl)c3F)ncnc2cc1OCCNC(=O)CCN(CC)CC` [Example 144, N-{4-(4-bromo-3-chloro-2-fluoro-phenylamino)-7-[2-(3-diethylamino-propionylamino)-ethoxy]-quinazolin-6-yl}-acrylamide], the IC50 against VEGFR2 (KDR) was 0.054 µM; in assay [1] (Homo sapiens, SK-BR-3, 72 h), 0.012 µM; in assay [2] (Homo sapiens, A-431, 72 h), 0.006 µM; in assay [3] (Homo sapiens, 96 h) it was 0.154 µM; in assay [4] (Homo sapiens, 72 h), 0.721 µM; on EGFR1 (HER-1), 0.007 µM.

Take `C=CC(=O)Nc1cc2c(Nc3ccc(Br)cc3F)ncnc2cc1OCC1CCN(C(=O)C(F)(F)F)CC1` [Example 2, N-{4-(4-bromo-2-fluoro-phenylamino)-7-[1-(2,2,2-trifluoro-acetyl)-piperidin-4-ylmethoxy]-quinazolin-6-yl}-acrylamide]: the IC50 amounted to 0.25 µM on VEGFR2 (KDR); 0.24 µM in assay [1] (Homo sapiens, SK-BR-3, 72 h); 0.082 µM in assay [2] (Homo sapiens, A-431, 72 h); 0.096 µM in assay [3] (Homo sapiens, 96 h); 4.58 µM in assay [4] (Homo sapiens, 72 h); 0.047 µM on EGFR1 (HER-1).

As to `C=CC(=O)Nc1cc2c(Nc3ccc(Br)cc3F)ncnc2cc1OCC(C)NC(=O)CCN(CC)CC` (stereo not drawn) [Example 155, N-{4-(4-bromo-2-fluoro-phenylamino)-7-[2-(3-diethylamino-propionylamino)-propoxy]-quinazolin-6-yl}-acrylamide], the half-inhibitory concentration (IC50) against VEGFR2 (KDR) is 0.249 µM; in assay [1] (Homo sapiens, SK-BR-3, 72 h), 0.11 µM; in assay [2] (Homo sapiens, A-431, 72 h) it was 0.035 µM; in assay [3] (Homo sapiens, 96 h) it was 0.314 µM; in assay [4] (Homo sapiens, 72 h), 9.55 µM; against EGFR1 (HER-1), 0.024 µM.

As for `C=CC(=O)Nc1cc2c(Nc3ccc(Br)cc3F)ncnc2cc1OCC1CCN(C(=O)NC(C)(C)C)CC1` [Example 11, 4-[6-acryloylamino-4-(4-bromo-2-fluoro-phenylamino)-quinazolin-7-yloxymethyl]-piperidin-1-carboxylic acid t-butylamide], the IC50 at VEGFR2 (KDR) was found to be 0.05 µM; in assay [1] (Homo sapiens, SK-BR-3, 72 h), 0.456 µM; in assay [2] (Homo sapiens, A-431, 72 h), 0.059 µM; in assay [3] (Homo sapiens, 96 h), 0.041 µM; in assay [4] (Homo sapiens, 72 h), 5.68 µM; at EGFR1 (HER-1) it was 0.014 µM.

Consider `C=CC(=O)Nc1cc2c(Nc3c(F)cc(Br)cc3F)ncnc2cc1OCC1CCN(C(C)=O)CC1` [Example 8, N-[7-(1-acetyl-piperidin-4-ylmethoxy)-4-(4-bromo-2,6-difluoro-phenylamino)-quinazolin-6-yl]-acrylamide], for which the IC50 is 0.148 µM against VEGFR2 (KDR); 0.149 µM in assay [1] (Homo sapiens, SK-BR-3, 72 h); 0.02 µM in assay [2] (Homo sapiens, A-431, 72 h); 0.098 µM in assay [3] (Homo sapiens, 96 h); 2.53 µM in assay [4] (Homo sapiens, 72 h); 0.013 µM against EGFR1 (HER-1).

As to `C=CC(=O)Nc1cc2c(Nc3ccc(Br)c(Cl)c3F)ncnc2cc1OC[C@@H](C)NC(=O)CN(C)C` [Example 159], the IC50 against VEGFR2 (KDR) was 0.419 µM; in assay [1] (72 hours), 0.162 µM; in assay [2] (72 hours) it was 0.254 µM; in assay [3] (96 hours), 0.423 µM; in assay [4] (72 hours), 6.65 µM; against EGFR1 (HER-1), 0.286 µM.

As to `C=CC(=O)Nc1cc2c(Nc3ccc(Br)cc3F)ncnc2cc1OCCNC(=O)CN1CCCC1` [Example 107, N-{4-(4-bromo-2-fluoro-phenylamino)-7-[2-(2-pyrrolidin-1-yl-acetylamino)-ethoxy]-quinazolin-6-yl}-acrylamide], the IC50 against VEGFR2 (KDR) came to 0.2 µM; in assay [1] (Homo sapiens, SK-BR-3, 72 h), 0.119 µM; in assay [2] (Homo sapiens, A-431, 72 h) it was 0.048 µM; in assay [3] (Homo sapiens, 96 h) it was 0.289 µM; in assay [4] (Homo sapiens, 72 h), 3.59 µM; at EGFR1 (HER-1) it was 0.045 µM.

As for `C=CC(=O)Nc1cc2c(Nc3ccc(Br)c(Cl)c3F)ncnc2cc1OCCNC(=O)N1CCOCC1` [Example 41, morpholine-4-carboxylic acid {2-[6-acryloylamino-4-(4-bromo-3-chloro-2-fluoro-phenylamino)-quinazolin-7-yloxy]-ethyl}-amide], the IC50 on VEGFR2 (KDR) worked out at 0.134 µM; in assay [1] (Homo sapiens, SK-BR-3, 72 h), 0.053 µM; in assay [2] (Homo sapiens, A-431, 72 h) it was 0.046 µM; in assay [3] (Homo sapiens, 96 h), 0.221 µM; in assay [4] (Homo sapiens, 72 h), 7.86 µM; against EGFR1 (HER-1), 0.035 µM.

The record behind these values is patent US8846699B2, “Quinazoline derivatives as a multiplex inhibitor and method for the preparation thereof” (Hanmi Pharm. Co., Ltd., priority 2005, dated 2014).
